For 22 compounds, IC50 results are on record in patent publication US9902725B2, “Heterocyclic derivatives as RORgamma modulators” (GENFIT, priority 2014, dated 2018).

One assay has as its target T1, human RORγt (Homo sapiens, UniProt P51449).
T1 sequence (P51449 1-497 isoform P51449-2): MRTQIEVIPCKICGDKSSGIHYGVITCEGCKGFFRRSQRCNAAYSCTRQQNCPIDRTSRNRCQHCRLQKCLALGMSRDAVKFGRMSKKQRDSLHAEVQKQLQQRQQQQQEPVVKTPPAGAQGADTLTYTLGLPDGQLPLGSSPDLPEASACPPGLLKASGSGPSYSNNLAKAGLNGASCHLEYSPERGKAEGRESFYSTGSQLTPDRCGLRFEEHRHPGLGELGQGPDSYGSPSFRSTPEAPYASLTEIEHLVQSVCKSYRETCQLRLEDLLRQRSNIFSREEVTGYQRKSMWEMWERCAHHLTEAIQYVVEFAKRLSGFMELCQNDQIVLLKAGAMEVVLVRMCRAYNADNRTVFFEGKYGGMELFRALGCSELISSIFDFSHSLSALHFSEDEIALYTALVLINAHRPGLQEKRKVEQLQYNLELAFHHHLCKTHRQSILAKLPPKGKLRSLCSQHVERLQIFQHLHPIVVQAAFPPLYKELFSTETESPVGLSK
In words: IL-17 secretion from EL4 murine lymphoma overexpressing human RORγt. It is filed as cell-based. Also on record: expressed in transfected cells; host or cells: EL-4 murine lymphoma. The following applies: IL-17 secretion inhibition, PMA and ionomycin stimulation, 24 h. How it is done:
Murine EL-4 lymphoma cell line overexpressing human RORγt was used in this functional assay to assess compound ability to inhibit IL-17 cytokine secretion.
EL-4 cells are maintained in a standard culture medium RPMI supplemented with 10% fetal calf serum, 1% sodium pyruvate, 1% essential amino acids and 1% antibiotics at 37° C. in a humidified atmosphere of 5% CO2 and 95% air. Culture medium was changed every 2 days. EL4 cells were transfected with a plasmid encoding hRORγt (sequence identical to published sequence NM 001001523). […] Briefly, 1 μg of DNA/1 million cells was served to transfect EL-4 cells. Cell/DNA suspension was transferred into certified cuvette and the electroporation of RORγt plasmid was carried out using appropriate Nucleofector® program.
Cells were seeded in 96 well plates at a density of 150000 cells/well then treated with compounds of this invention at indicated concentrations and incubated for 24 hours at 37° C. in a humidified atmosphere of 5% CO2 and 95% air. EL-4 cells were pretreated with test compounds (RORγ modulators) and stimulated with PMA (10 ng/mL) and ionomycin (1 μM final concentration) in the presence of test compound concentrations for additional 24 h at 37° C. in a humidified atmosphere of 5% CO2 and 95% air. Subsequently, supernatants were collected (after centrifugation at 300 g for 10 minutes) to determine the concentrations of IL-17 by HTRF (CisBio, France) or ELISA (R&D Systems Europe) according to the manufacturer's protocols.

For assay [1], the target named is T2, RORγt ligand-binding domain (RORγt-LBD) (Homo sapiens, UniProt P51449).
T2 construct: 20 nM recombinantly expressed RORγ-LBD fused to GST
T2 sequence (P51449 269-508 limits assumed): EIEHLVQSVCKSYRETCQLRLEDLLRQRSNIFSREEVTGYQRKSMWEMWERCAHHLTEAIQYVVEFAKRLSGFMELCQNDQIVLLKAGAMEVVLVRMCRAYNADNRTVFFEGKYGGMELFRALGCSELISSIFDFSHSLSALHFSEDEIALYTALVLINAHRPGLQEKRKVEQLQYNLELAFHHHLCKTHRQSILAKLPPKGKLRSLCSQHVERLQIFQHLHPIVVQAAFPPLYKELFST
In words: Time-resolved FRET (TR-FRET) RORγt coactivator assay. It is filed as biochemical. The following applies: GST-RORγ-LBD, biotinylated RIP140 peptide, coactivator displacement.

Some results are limits rather than exact numbers.

Take `Cc1cc(Br)ccc1C(NC(=O)Cc1ccc2[nH]cc(CCC(=O)OC(C)(C)C)c2c1)c1ccccc1` (centres unmarked) [Cpd. 43, tert-butyl 3-[5-({[(4-bromo-2-methylphenyl)(phenyl)methyl]carbamoyl}methyl)-1H-indol-3-yl]propanoate]: the IC50 against human RORγt fell in the range of 10000 to 30000 nM; in assay [1], 1000 to 10000 nM. With `CC(C)(C)OC(=O)CCc1c[nH]c2ccc(CC(=O)NC(c3ccccc3)c3ccc(C(F)(F)F)cc3N3CCCC3)cc12` (centres unmarked) [Cpd. 47, tert-butyl 3-{5-[({phenyl[2-(pyrrolidin-1-yl)-4-(trifluoromethyl)phenyl]methyl}carbamoyl)methyl]-1H-indol-3-yl}propanoate], the IC50 (against human RORγt; in assay [1]) was 1000 to 10000 nM in each case. As to `CC(C)(C)OC(=O)CCc1c[nH]c2ccc(CC(=O)NC(c3ccccc3)c3ccc(Br)cc3N3CCCC3)cc12` (centres unmarked) [Cpd. 49, tert-butyl 3-{5-[({[4-bromo-2-(pyrrolidin-1-yl)phenyl](phenyl)methyl}carbamoyl)methyl]-1H-indol-3-yl}propanoate], the IC50 (against human RORγt; in assay [1]) was 1000 to 10000 nM each time. `CC(C)(C)OC(=O)CCc1c[nH]c2ccc(CC(=O)NC(c3ccccc3)c3ccc(C#N)cc3N3CCCC3)cc12` (centres unmarked) [Cpd. 59, tert-butyl 3-{5-[({[4-cyano-2-(pyrrolidin-1-yl)phenyl](phenyl)methyl}carbamoyl)methyl]-1H-indol-3-yl}propanoate]: the IC50 against human RORγt is 1000 to 10000 nM; in assay [1] it was less than 1000 nM. For `COC(=O)Cc1c[nH]c2ccc(CC(=O)NC(c3ccccc3)c3ccc(C)cc3N3CCCC3)cc12` (centres unmarked) [Cpd. 64, methyl 2-{5-[({[4-methyl-2-(pyrrolidin-1-yl)phenyl](phenyl)methyl}carbamoyl)methyl]-1H-indol-3-yl}acetate], the IC50 (against human RORγt; in assay [1]) was less than 1000 nM throughout.

Turning to `Cc1ccc(C(NC(=O)Cc2ccc3[nH]cc(CCC(=O)OC(C)(C)C)c3c2)c2ccccc2)c(N2CCCCC2)c1` (centres unmarked) [Cpd. 76, tert-butyl 3-{5-[({[4-methyl-2-(piperidin-1-yl)phenyl](phenyl)methyl}carbamoyl)methyl]-1H-indol-3-yl}propanoate], the figures for the IC50 (against human RORγt; in assay [1]) were 1000 to 10000 nM and less than 1000 nM, respectively. For `CC(C)(C)OC(=O)CCc1c[nH]c2ccc(CC(=O)NC(c3ccccc3)c3ccccc3N3CCCC3)cc12` (centres unmarked) [Cpd. 78, tert-butyl 3-{5-[({phenyl[2-(pyrrolidin-1-yl)phenyl]methyl}carbamoyl)methyl]-1H-indol-3-yl}propanoate], the IC50 (on human RORγt; in assay [1]) was 1000 to 10000 nM each time. Turning to `COc1ccc(C(NC(=O)Cc2ccc3[nH]cc(CCC(=O)OC(C)(C)C)c3c2)c2ccccc2)c(C)c1` (centres unmarked) [Cpd. 82, tert-butyl 3-[5-({[(4-methoxy-2-methylphenyl)(phenyl)methyl]carbamoyl}methyl)-1H-indol-3-yl]propanoate], the IC50 is 1000 to 10000 nM on human RORγt and less than 1000 nM in assay [1].

Take `COC(=O)Cc1c[nH]c2ccc(CC(=O)NC(c3ccccc3)c3ccc(Cl)cc3N3CCCC3)cc12` (centres unmarked) [Cpd. 84, methyl 2-{5-[({[4-chloro-2-(pyrrolidin-1-yl)phenyl](phenyl)methyl}carbamoyl)methyl]-1H-indol-3-yl}acetate]: the IC50 at human RORγt is 1000 to 10000 nM; in assay [1], less than 1000 nM.

As for `COC(=O)Cc1c[nH]c2ccc(CC(=O)NC(c3ccccc3)c3ccc(C)cc3N3CCCCC3)cc12` (centres unmarked) [Cpd. 86, methyl 2-{5-[({[4-methyl-2-(piperidin-1-yl)phenyl](phenyl)methyl}carbamoyl)methyl]-1H-indol-3-yl}acetate], the IC50 (against human RORγt; in assay [1]) was less than 1000 nM each time.

In turn, `N=C(N)NC(=O)CCc1c[nH]c2ccc(CC(=O)NC(c3ccccc3)c3ccccc3N3CCCCC3)cc12` (centres unmarked) [compound 235, 1-{2-[(2-{3-[2-(carbamimidoylcarbamoyl)ethyl]-1H-indol-5-yl}acetamido)(phenyl)methyl]phenyl}piperidin-1-ium chloride] showed an IC50 in assay [1] of 1000 to 10000 nM. The same measure, in the same setting: under `O=C(O)CCc1n[nH]c2ccc(CC(=O)NC(c3ccccc3)c3ccccc3N3CCCCC3)cc12` (centres unmarked) [compound 237, 3-{5-[({phenyl[2-(piperidin-1-yl)phenyl]methyl}carbamoyl)methyl]-1H-indazol-3-yl}propanoic acid] stands less than 1000 nM; under `CC(C)CC(NC(=O)Cc1ccc2[nH]cc(CCC(=O)O)c2c1)c1ccccc1OC(C)C` (centres unmarked) [compound 241, 3-{5-[({3-methyl-1-[2-(propan-2-yloxy)phenyl]butyl}carbamoyl)methyl]-1H-indol-3-yl}propanoic acid], less than 1000 nM; under `CCOc1ccccc1C(CC(C)C)NC(=O)Cc1ccc2[nH]cc(CCC(=O)O)c2c1` (centres unmarked) [compound 243, 3-[5-({[1-(2-ethoxyphenyl)-3-methylbutyl]carbamoyl}methyl)-1H-indol-3-yl]propanoic acid], less than 1000 nM. In assay [1], `CC(C)CCC(NC(=O)Cc1ccc2[nH]cc(CCC(=O)O)c2c1)c1ccccc1N1CCCCC1` (centres unmarked) [compound 245, 3-{5-[({4-methyl-1-[2-(piperidin-1-yl)phenyl]pentyl}carbamoyl)methyl]-1H-indol-3-yl}propanoic acid] registered a 50% inhibitory concentration (IC50) of less than 1000 nM. On the same count and under the same terms, as for `CCOc1ccc(C(NC(=O)Cc2ccc3[nH]cc(CCC(=O)O)c3c2)c2ccccc2)c(OCC)c1` (centres unmarked) [compound 247, 3-[5-({[(2,4-diethoxyphenyl)(phenyl)methyl]carbamoyl}methyl)-1H-indol-3-yl]propanoic acid], the figure is less than 1000 nM; as for `Cc1ccc(C(NC(=O)Cc2ccc3[nH]cc(CCC(=O)O)c3c2)c2ccccc2)c(N2CCCCCC2)c1` (centres unmarked) [compound 251, 3-{5-[({[2-(azepan-1-yl)-4-methylphenyl](phenyl)methyl}carbamoyl)methyl]-1H-indol-3-yl}propanoic acid], less than 1000 nM.

`Cc1cc(C(NC(=O)Cc2ccc3[nH]cc(CCC(=O)O)c3c2)c2ccccc2N2CCCCC2)oc1C` (centres unmarked) [compound 253, 3-[5-({[(4,5-dimethylfuran-2-yl)[2-(piperidin-1-yl)phenyl]methyl]carbamoyl}methyl)-1H-indol-3-yl]propanoic acid] came in with an IC50 in assay [1] of less than 1000 nM. The same measure, in the same setting: under `Cc1ccc(C(NC(=O)Cc2ccc3[nH]cc(CCC(=O)O)c3c2)c2ccccc2OC(C)C)o1` (centres unmarked) [compound 255, 3-[5-({[(5-methylfuran-2-yl)[2-(propan-2-yloxy)phenyl]methyl]carbamoyl}methyl)-1H-indol-3-yl]propanoic acid] stands less than 1000 nM; under `CON(C)C(=O)Cc1c[nH]c2ccc(CC(=O)NC(c3ccccc3)c3ccccc3N3CCCCC3)cc12` (centres unmarked) [compound 258, N-methoxy-N-methyl-2-{5-[({phenyl[2-(piperidin-1-yl)phenyl]methyl}carbamoyl)methyl]-1H-indol-3-yl}acetamide], less than 1000 nM; under `CC(C)CC(NC(=O)Nc1ccc2[nH]cc(CCC(=O)OC(C)(C)C)c2c1)c1ccccc1N1CCCCC1` (centres unmarked) [compound 262, tert-butyl 3-{5-[({3-methyl-1-[2-(piperidin-1-yl)phenyl]butyl}carbamoyl)amino]-1H-indol-3-yl}propanoate], 1000 to 10000 nM. `Cc1ccc(C(NC(=O)Cc2ccc3[nH]cc(CCC(=O)OC(C)(C)C)c3c2)c2ccccc2)c(N2CCN(Cc3ccccc3)CC2)c1` (centres unmarked) [compound 263, tert-butyl 3-{5-[({[2-(4-benzylpiperazin-1-yl)-4-methylphenyl](phenyl)methyl}carbamoyl)methyl]-1H-indol-3-yl}propanoate]: the IC50 in assay [1] is less than 1000 nM.
